Where two headings read alike, the source gives them in different places.
How the values were obtained:
[1] = tested on: PKCiota; assay: Immunohistochemical staining, subcellular localization of PKCiota; format: cell-based, human; conditions: 12 h; comparators at doses giving similar cell killing
Description: Effects on subcellular localization of PKCiota. […] To further investigate molecular mechanisms of Oncrasin action the inventors studied the subcellular localization of several molecules involved in Ras-signaling pathway because the functions of Ras and other proteins are directly related to their subcellular localizations. For this purpose, T29Kt1 or H460 cells were seeded on cover glass slides and treated with DMSO or Oncrasin-1 for 12 h. Cells were then fixed with paraformaldehyde, permeabilized with Triton X-100 and stained with various antibodies for immunohistochemical examination. […] Nevertheless, substantial subcellular localization change was detected for PKCiota after Oncrasin-1 treatment (FIG. 6). In both H460 and T29Kt1 cells, both PKCiota and PKCzeta were diffusely distributed in cells with high concentration on cell membrane in nucleus, consisting with previous reports that aPKC contains both nuclear localization signal (NLS) and nuclear export signal (NES), and can shuttle between cytoplasm and nucleus, which was regulated by intramolecular conformational changes, phosphorylation or by treatment with growth factors (Perander et al., 2001; White et al., 2002; Neri et al., 1999). […] Such aggregation of PKCiota was not observed in Oncrasin-resistant T29 and H1299 cells. The inventors then tested whether PKCiota aggregation in the nucleus can be induced by other chemotherapeutic agents such as 5-fluorouracil (5-FU) and paclitaxol.

[2] = tested on: H2087; assay: Cell viability, H2087 lung cancer cells; format: cell-based, human; conditions: Homo sapiens, NCI-H2087, read-out: IC50 (−LogM) (converted)
[3] = tested on: CT116P53; assay: Cell viability, CT116P53 colon cancer cells; format: cell-based, human; conditions: Homo sapiens, read-out: IC50 (−LogM) (converted)
[4] = tested on: H226B cells; assay: Cell viability, H226B lung cancer cells; format: cell-based, human; conditions: for IC50 (−LogM): H226B, Lung, listed as Onk29; for IC50: Homo sapiens
[5] = tested on: T29Kt1 cells; conditions: Table 1, value is the negative log10 of mol/L
[6] = tested on: A549 cells; assay: Cell viability, A549 lung cancer cells; format: cell-based, human; conditions: A549, Lung
[7] = tested on: Hct116; assay: Cell viability, Hct116 colon cancer cells; format: cell-based, human
[8] = tested on: miapac; assay: Cell viability, miapac pancreatic cancer cells; format: cell-based, human; conditions: Homo sapiens, Pancreatic cancer cell, read-out: IC50 (−LogM) (converted)
[9] = tested on: DLD1; assay: Cell viability, DLD1 colon cancer cells; format: cell-based, human; conditions: Homo sapiens, DLD-1, read-out: IC50 (−LogM) (converted)
[10] = tested on: H2122; assay: Cell viability, H2122 lung cancer cells; format: cell-based, human; conditions: Homo sapiens, NCI-H2122, read-out: IC50 (−LogM) (converted)
[11] = tested on: Heb44; assay: Cell viability, Heb44 kidney cells; format: cell-based
[12] = tested on: H2009; assay: Cell viability, H2009 lung cancer cells; format: cell-based, human; conditions: Homo sapiens, NCI-H2009, read-out: IC50 (−LogM) (converted)
[13] = tested on: HKE3; assay: Cell viability, HKE3 colon cancer cells; format: cell-based, human; conditions: HKE3, Colon
[14] = tested on: AsPC-1; assay: Cell viability, AsPC-1 pancreatic cancer cells; format: cell-based, human
[15] = tested on: Capanc-1; assay: Cell viability, Capanc-1 pancreatic cancer cells; format: cell-based, human; conditions: capanc1, Pancrease
[16] = tested on: H1299 cells; assay: Cell viability, H1299 lung cancer cells; format: cell-based, human
[17] = tested on: H460 cells; assay: cells; conditions: Homo sapiens
[18] = tested on: H1933; assay: Cell viability, H1933 lung cancer cells; format: cell-based, human; conditions: Homo sapiens, read-out: IC50 (−LogM) (converted)
[19] = tested on: H322 cells; assay: Cell viability, H322 lung cancer cells; format: cell-based, human; conditions: Homo sapiens, NCI-H322, read-out: IC50 (−LogM) (converted)
[20] = tested on: Sw620; assay: Cell viability, Sw620 colon cancer cells; format: cell-based, human
[21] = tested on: H23; assay: Cell viability, H23 lung cancer cells; format: cell-based, human; conditions: Homo sapiens, NCI-H23, read-out: IC50 (−LogM) (converted)
[22] = tested on: Hey; assay: Cell viability, Hey ovary cancer cells; format: cell-based
[23] = tested on: Ovcar3; assay: Cell viability, Ovcar3 ovary cancer cells; format: cell-based; conditions: Homo sapiens, OVCAR-3
[24] = tested on: Ovcar443; assay: Cell viability, Ovcar443 ovary cancer cells; format: cell-based
[25] = tested on: Ovca429; assay: Cell viability, Ovca429 ovary cancer cells; format: cell-based
[26] = tested on: SKOV3; assay: Cell viability, SKOV3 ovary cancer cells; format: cell-based; conditions: Homo sapiens, SK-OV-3
[27] = tested on: H1395; assay: Cell viability, H1395 lung cancer cells; format: cell-based, human; conditions: Homo sapiens, NCI-H1395, read-out: IC50 (−LogM) (converted)
[28] = tested on: Heb46; assay: Cell viability, Heb46 kidney cells; format: cell-based
[29] = tested on: A549CK8; assay: Cell viability, A549CK8 lung cancer cells; format: cell-based, human; conditions: Homo sapiens, read-out: IC50 (−LogM) (converted)

O=c1cc(N2CCOCC2)oc2c(-c3ccccc3)cccc12 [LY294003, reference compound]
PKCiota aggregation in the nucleus, T29Kt1 cells [1]: did not induce PKCiota aggregation

O=c1[nH]cc(F)c(=O)[nH]1 [Oncrasin 5-FLY, 5-fluorouracil, reference compound]
PKCiota aggregation in the nucleus, T29Kt1 cells [1]: did not induce PKCiota aggregation

O=Cc1cn(Cc2ccc(Br)cc2)c2ccccc12 [Oncrasin K029, 1-(4-bromobenzyl)-1H-indole-3-carbaldehyde]
IC50 [2]: 31.6 µM | IC50 [3]: < 31.6 µM | IC50 (−LogM) ([4]; first H226B line): 7.1 −LogM | IC50 (−LogM) ([4]; second H226B line): 5.5 −LogM | IC50 ([4]; read-out: IC50 (−LogM), H226B, Lung, first H226B line (converted)): 0.126 µM | IC50 ([4]; read-out: IC50 (−LogM), H226B, Lung, second H226B line (converted)): 5.01 µM | IC50 in T29k cells ([5]; listed as K29): 6.6 | IC50 in T29k cells [5]: 5 | IC50 (−LogM) ([6]; listed as OnK29): 5 −LogM | IC50 (−LogM) ([6]; listed as Onk29): >4.5 −LogM | IC50 (−LogM) ([7]; Hct116, Colon, listed as OnK29): 5.5 −LogM | IC50 ([7]; Homo sapiens, HCT-116, read-out: IC50 (−LogM), Hct116, Colon (converted)): 2.51 µM | IC50 [8]: < 31.6 µM | IC50 [9]: < 31.6 µM | IC50 [10]: 2 µM | IC50 (−LogM) ([11]; listed as OnK29): 7.2 −LogM | IC50 (−LogM) ([11]; listed as Onk29): 8.1 −LogM | IC50 [12]: < 31.6 µM | IC50 (−LogM) ([13]; first HKE3 line, listed as OnK29): 6.6 −LogM | IC50 (−LogM) ([13]; first HKE3 line, listed as Onk29): 7 −LogM | IC50 (−LogM) ([13]; second HKE3 line, listed as OnK29): 5.8 −LogM | IC50 (−LogM) ([13]; second HKE3 line, listed as Onk29): 6.3 −LogM | IC50 (−LogM) ([14]; ASPC1, Pancrease, listed as OnK29): 5.3 −LogM | IC50 ([14]; Homo sapiens, ASPC1, read-out: IC50 (−LogM), ASPC1, Pancrease (converted)): 3.98 µM | IC50 (−LogM) ([15]; listed as OnK29): 5 −LogM | IC50 (−LogM) ([15]; listed as Onk29): 6 −LogM | IC50 ([16]; Homo sapiens, NCI-H1299, read-out: IC50 (−LogM), h1299, Lung (converted)): 12.6 µM | IC50 (−LogM) ([16]; h1299, Lung, listed as OnK29): 5.1 −LogM | IC50 ([17]; NCI-H460, read-out: IC50 (−LogM), H460, Lung (converted)): 0.00316 µM | IC50 ([17]; NCI-H460, read-out: IC50 in H460 cells, Table 1): 0.00316 µM | IC50 [18]: 31.6 µM | IC50 [19]: 31.6 µM | IC50 ([20]; Homo sapiens, SW-620, read-out: IC50 (−LogM), Sw620, Colon (converted)): 31.6 µM | IC50 (−LogM) ([20]; Sw620, Colon, listed as OnK29): >4.5 −LogM | IC50 [21]: 31.6 µM | IC50 [22]: 31.6 µM | IC50 [23]: 5.01 µM | IC50 [24]: 10 µM | IC50 [25]: 3.16 µM | IC50 [26]: 3.16 µM | IC50 [27]: 31.6 µM | IC50 (−LogM) ([28]; listed as OnK29): 5.6 −LogM | IC50 (−LogM) ([28]; listed as Onk29): 6.6 −LogM | IC50 [29]: 3.16 µM

From patent US8883841B2, “Oncogenic ras-specific cytotoxic compound and methods of use thereof” (The Board of Regents of the University of Texas System, priority 2005, dated 2014)
